Like-named read-outs stand apart in the source and are kept apart here.
Assays:
[1] = test system: complementary natural RNA oligomer; test: Thermal dissociation (Tm) of duplexes with complementary RNA strand; assay type: binding; details: 150 mM NaCl; for Tm, melting temperature of the duplexes: 10 mM sodium phosphate buffer pH 7.4, ±0.5° C.
Procedure: ^31P NMR spectra were obtained on a Varian 400 Mhz spectrometer. ^31P NMR spectra were referenced against 85% aqueous phosphoric acid. Anion exchange HPLC was performed using a Dionex DX 500 Chromatography System, with a Pharmacia Bitotech Mono Q HR 5/5 or 10/16 ion exchange columns. Mass spectral analysis was performed by Mass Consortium, San Diego, Calif. MALDI-TOF analysis of oligonucleotides was obtained using a PerSpective Biosystems Voyager Elite mass spectrometer with delayed extraction. Thermal dissociation experiments were conducted on a Cary Bio 100 UV-Vis spectrometer.
Duplex formation properties of oligonucleotide phosphoramidates with complementary RNA strand were evaluated using thermal dissociation experiments. […] Also, the increase in the thermal stability of duplexes was similar to that observed for the phosphoramidate oligomers.

[2] = test system: telomerase (affinity-purified extract from 293 cells over-expressing hTERT); test: Bio-Tel FlashPlate telomerase activity assay; assay type: biochemical, human; details: telomerase inhibition
[3] = test system: HME50-5E cells; test: Reduction of telomere length in tumor cells (TRF analysis); assay type: cell-based, human; details: for telomere length by TRF analysis: about 0.5 μM, measured at 10, 20, 40 and 80 days (FIG. 7)
Procedure: Colonies of human breast epithelial cells (spontaneously immortalized) were prepared using standard methods and materials. Colonies were prepared by seeding 15-centimeter dishes with about 10^6 cells in each dish. The dishes were incubated to allow the cell colonies to grow to about 80% confluence, at which time each of the colonies were divided into two groups. One group was exposed to a subacute dose of thiophosphoramidate polynucleotide SEQ ID NO:2 at a predetermined concentration (e.g., between about 100 nM and about 20 μM) for a period of about 4-8 hours after plating following the split. The second group of cells were similarly exposed to mismatch control oligonucleotide SEQ ID NO:4.
Each group of cells is then allowed to continue to divide, and the groups are split evenly again (near confluence). The same number of cells were seeded for continued growth. The test thiophosphoramidate oligonucleotide or control oligonucleotide was added every fourth day to the samples at the same concentration delivered initially. In one experiment the cells were additionally treated with FuGENE6™ (Boehringer-Mannhiem) following manufacturers instructions. FuGENE6™ enhances oligonucleotide uptake by the cells.
Telomere length was determined by digesting the DNA of the cell samples using restriction enzymes specific for sequences other than the repetitive T2AG3 sequence of human telomeres (TRF analysis). The digested DNA was separated by size using standard techniques of gel electrophoresis to determine the lengths of the telomeric repeats, which appear, after probing with a telomere DNA probe, on the gel as a smear of high-molecular weight DNA (approximately 2 Kb-15 Kb). FIGS. 4 and 5 show examples of such experiments.
The HME50-5E cells were incubated with one of the thiophosphoramidate polynucleotides shown in SEQ ID NOs:2 and 8. The mismatch oligonucleotide SEQ ID NO:4 was used as a control. All polynucleotides were used at a concentration of about 0.5 μM using the protocol described above. The length of the telomeres were measured at 10, 20, 40 and 80 days. […] In addition to the HME50-5E cells described above, this assay can be performed with any telomerase-positive cell line, such as HeLa cells or HEK-293 cells.

[4] = 40% aqueous acetic acid at room temperature
[5] = phosphoramidate backbone, read-out: IC50(nM) phosphoramidate
[6] = thiophosphoramidate backbone, read-out: IC50(nM) thiophosphoramidate

5′-GTTAGGGTTAG-3′ (listed as DNA, chemistry not fully specified) [SEQ ID NO:1 phosphoramidate]
−Tm, increase of Tm relative to the natural phosphodiester counterpart ([1]; 10 mM sodium phosphate buffer pH 7.4, listed as SEQ ID NO:1 np): 27.9 °C | Tm, melting temperature of the duplexes ([1]; listed as SEQ ID NO:1 np): 72.1 °C | IC50 [2, 5]: 1.9 nM

5′-GTTAGGGTTAG-3′ (listed as DNA, chemistry not fully specified) [SEQ ID NO:1 thiophosphoramidate]
−Tm, increase of Tm relative to the natural phosphodiester counterpart ([1]; 10 mM sodium phosphate buffer pH 7.4, listed as SEQ ID NO:1 nps): 27.3 °C | Tm, melting temperature of the duplexes ([1]; listed as SEQ ID NO:1 nps): 71.5 °C | IC50 [2, 6]: 0.89 nM

5′-GTTGAGTGTAG-3′ (listed as DNA, chemistry not fully specified) [SEQ ID NO:3 phosphoramidate, N3′→P5′ phosphoramidate mismatch control, reference compound]
IC50 [2, 5]: 1000 nM

5′-GTTGAGTGTAG-3′ (listed as DNA, chemistry not fully specified) [SEQ ID NO:3 thiophosphoramidate]
IC50 [2, 6]: 177 nM

5′-TAGGGTTAGACAA-3′ (thiophosphoramidate backbone, chemistry not fully specified) [SEQ ID NO:2 thiophosphoramidate]
−Tm, increase of Tm relative to the natural phosphodiester counterpart ([1]; 10 mM sodium phosphate buffer pH 7.4): 24.8 °C | Tm, melting temperature of the duplexes [1]: 70.0 °C | IC50 [2, 6]: 0.41 nM | telomere size compared to control cells ([3]; HME50-5E cells coincubated with FuGENE6, even at lowest concentration tested (100 nM) (FIG. 4)): telomere size was reduced compared to the control cells | telomere length by TRF analysis ([3]; HME50-5E cells): effective in reducing telomere length | telomere length ([3]; HME50-5E cells, absence of FuGENE6, 1-20 μM (FIG. 4)): large decrease in telomere length | telomere length (inhibition of telomerase activity) ([3]; treatment of HME50-5E human breast epithelial cells): decrease in telomere length

5′-TAGGGTTAGACAA-3′ [SEQ ID NO:2 phosphoramidate]
−Tm, increase of Tm relative to the natural phosphodiester counterpart ([1]; 10 mM sodium phosphate buffer pH 7.4, listed as SEQ ID NO:2 np): 26.5 °C | Tm, melting temperature of the duplexes ([1]; listed as SEQ ID NO:2 np): 71.7 °C | Acid Stability, half-live of oligonucleotide ([4]; listed as SEQ ID NO:2 np): 0.5 h

5′-TAGGGTTAGACAA-3′ [SEQ ID NO:2 thiophosphoramidate] (thiophosphoramidate backbone, chemistry not fully specified)
Acid Stability, half-live of oligonucleotide ([4]; listed as SEQ ID NO:2 nps): 6 h

5′-TAGGTGTAAGCAA-3′ (listed as DNA, chemistry not fully specified) [SEQ ID NO:4 phosphoramidate, N3′→P5′ phosphoramidate mismatch control, reference compound]
IC50 [2, 5]: 1000 nM

5′-TAGGTGTAAGCAA-3′ (listed as DNA, chemistry not fully specified) [SEQ ID NO:4 thiophosphoramidate]
IC50 [2, 6]: 79.3 nM

CAGTTAGGGTTAG (listed as DNA, chemistry not fully specified) [SEQ ID NO:8 thiophosphoramidate]
telomere length by TRF analysis ([3]; HME50-5E cells): effective in reducing telomere length | telomere size compared to control cells ([3]; even at lowest concentration tested (1 nM) (FIG. 5)): telomere size was reduced compared to the control cells

GTTAGGGTTAG (unmodified DNA) [SEQ ID NO:1 po, natural phosphodiester oligomer]
Tm, melting temperature of the duplexes [1]: 44.2 °C

TAGGGTTAGACAA (DNA, all phosphodiester, methylation of C not given here) [SEQ ID NO:2 po, natural phosphodiester oligomer]
Tm, melting temperature of the duplexes [1]: 45.2 °C

Source: US6608036B1, “Oligonucleotide N3′→P5′ thiophosphoramidates: their synthesis and administration to treat neoplasms” (Geron Corporation, priority 1999, dated 2003)
